We go through 3 molecules from paper PMC3600082 (Journal of medicinal chemistry, 2013).

Test [1] has as its system HIV-1 NL4-3 Env-mediated cell-cell fusion. Kind of test: Fusion assay. It counts as cell-based. To be noted: COS cells expressing Env mixed with TZM-bl cells; luciferase.
Test [2] relates to Gag CA-SP1 cleavage in NL4-3/V370A. Kind of test: Anti-HIV-1 maturation assay. It counts as cell-based. To be noted: virus produced by 293T cells in presence of compound; Western blot.
Test [3] deals with Gag CA-SP1 cleavage in wild type NL4-3. Conditions: virus produced by 293T cells in presence of compound; Western blot.
For test [4], the system named is BVM-R HIV-1 variants (V370Δ, V370A, V362I, T371Δ). Kind of test: Multi-cycle viral replication in MT4 cell assay, panel of BVM-R variants. The format is cell-based. Conditions: for sensitivity of BVM-R viruses to the compound: BVM-R variants.
The test system of another test is HIV-1 NL4-3. To be noted: relative to compound 1; cited from earlier work.
In another test the test system is NL4-3/V370A. Kind of test: Multi-cycle viral replication in MT4 cell assay. It counts as cell-based, HIV-1. To be noted: relative to compound 1.
Test [5] relates to Gag CA-SP1 cleavage in NL4-3/V362I. In words: Anti-HIV-1 maturation assay. To be noted: virus produced by 293T cells in presence of compound; Western blot. The format is cell-based.

“Also recorded” adds a separate entry of the source.

As to `C=C(C)[C@@H]1CC[C@]2(C(=O)O)CC[C@]3(C)[C@H](CC[C@@H]4[C@@]5(C)CC[C@H](OC(=O)CC(C)(C)C(=O)O)C(C)(C)[C@@H]5CC[C@]43C)[C@@H]12` [Compound 1, 3-O-(3’,3’-dimethylsuccinyl)-betulinic acid], the “inhibition of HIV-1 entry / Env-mediated cell-cell fusion” value in test [1] was “do not inhibit HIV-1 entry”. Further, in test [2], the “inhibition of Gag CA-SP1 cleavage (p25 accumulation), NL4-3/V370A” value is on record as “did not inhibit the cleavage of Gag CA-SP1”. Moreover, in test [3], the “inhibition of Gag CA-SP1 cleavage (p25 accumulation), wild type NL4-3” value is recorded as “interfered with the cleavage of Gag CA-SP1”. Further, the “sensitivity of BVM-R viruses to the compound” value (shortened to “sensitivity of BVM-R viruses”) in test [4] is “not sensitive”.
Consider `C=C(C)[C@@H]1CC[C@]2(C(=O)N3CCN(CCCCC(=O)O)CC3)CC[C@]3(C)[C@H](CC[C@@H]4[C@@]5(C)CC[C@H](OC(=O)CC(C)(C)C(=O)O)C(C)(C)[C@@H]5CC[C@]43C)[C@@H]12` [Compound 30, N-[3β-O-(3′,3′-dimethylsuccinyl)lup-20(29)-en-28-oyl]-5-piperazinepentanoic acid], for which, in the test on HIV-1 NL4-3, the “increase in anti-HIV-1 maturation activity” value is recorded as “greater than 10 fold”. In test [4], the “sensitivity of BVM-R viruses” value was “ineffective; also recorded: not effective”.
Turning to `C=C(C)[C@@H]1CC[C@]2(C(=O)NCCCCCCCCC(=O)N[C@@H](CCC(N)=O)C(=O)OC)CC[C@]3(C)[C@H](CC[C@@H]4[C@@]5(C)CC[C@H](OC(=O)CC(C)(C)C(=O)O)C(C)(C)[C@@H]5CC[C@]43C)[C@@H]12` [Compound 6, Methyl N-[N’-[3β-O-(3’,3’-dimethylsuccinyl)-betulinic acid-28-oyl]-9-aminononanoyl]-L-glutaminate], the “inhibition of HIV-1 entry / Env-mediated cell-cell fusion” value in test [1] is recorded as “do not inhibit HIV-1 entry; also recorded: did not inhibit”. In test [2], the “inhibition of Gag CA-SP1 cleavage (p25 accumulation), NL4-3/V370A” value is recorded as “resulted in accumulation of CA-SP1 (p25)”. In addition, the “fold more potent than 1 against the replication of NL4-3/V370A” value in the test with NL4-3/V370A is recorded as “at least 20 fold”. In test [4], the “sensitivity of BVM-R viruses” value is recorded as “sensitive”. Also, the “fold more potent than 1 against four BVM-R viruses” value in test [4] (relative to compound 1) is “at least 20 fold”. Moreover, the “inhibition of Gag CA-SP1 cleavage (p25 accumulation), NL4-3/V362I” value in test [5] is on record as “accumulation of p25 was even more pronounced”.
